# Test results as given in PMC11065314, “Identification of compounds that cause axonal dieback without cytotoxicity in dorsal root ganglia explants and intervertebral disc cells with potential to treat pain via denervation” (PLOS ONE, 2024).
# Several values for one entry are separate records, joined by “and”; a condition that tells them apart may be missing. Equal values may be shown once. Where a name gives a salt, the structure may show the parent alone.
# What was measured:
# adult rat DRG explants = assay type: cell-based
# [1] = parameters: method as in PMID 30888737; details: intraarticular injection; cited from earlier work
# rat DRG explants = assay: DRG cytotoxicity assessment using LDH assay; assay type: cell-based; details: for Cytotoxicity (%): single well; for Overall cytotoxicity lower compared to lysed DRGs: all concentrations tested, day 3
# Method: (§1) 500 nM Imy and 10 nM Vcr were excluded from female rat DRG experiments while 500 nM Vcr and 1 mM Pyr were excluded from male rat DRG experiments due to insufficient DRG replicates with axon outgrowth. DRG media was removed from wells and transferred into a 96-well plate for pre-treat LDH cytotoxicity assay (see Methods below). 300 μL of media treatment solutions or solvent control solutions were added to wells. DRGs were incubated with treatment solutions for three days, and brightfield images at 4X magnification were taken using BioTek Cytation1 Plate Imager (Agilent) before treatment (day -1) and on days 1, 2 and 3 after treatment. DRGs from adult male and female rats were tested to determine if sex can affect axonal dieback. In total, 12 to 15 DRG replicates per group by sex harvested from n = 3 male and n = 3 female rats were tested.
# (§2) Lactate dehydrogenase (LDH) is a cytosolic enzyme present in all cells. Dissociated rat DRG neurons release LDH during tunicamycin-induced apoptosis. […] An ideal axonal dieback compound should cause axonal degeneration without neurotoxicity. was assessed on day 3 post-treat and normalized to pre-treat levels to account for variability in DRG size and growth and calculated as a percentage of cytotoxicity to lysed DRGs (positive control). 50 μL of pre-treatment and post-treatment media were aliquoted in duplicates into a 96-well plate. LDH activity in the media post-treat was assessed using the CyQUANT^TM LDH Cytotoxicity Assay Kit (Thermo Fisher Scientific, C20301) according to the manufacturer’s instructions. Briefly, 50 μL of Substrate Mix was added to each well and then incubated at room temperature for 30 minutes protected from light. 50 μL of Stop solution was added to each well and the absorbance at 490 nm and 680 nm was measured using a microplate reader (Agilent). LDH activity of each DRG was calculated as the difference between absorbance at 490 nm after subtracting the background absorbance at 680 nm. As a positive control, 13 female rat DRGs and 15 male rat DRGs were treated for three days with Lysis buffer solution, provided in the kit, diluted 1:5.45 in DRG media. The percentage of cytotoxicity was calculated following Eq 2. Pre-treat levels of LDH activity were subtracted from post-treat LDH activity in each DRG to remove baseline LDH activity then percentage of cytotoxicity compared to positive control lysed DRG LDH activity was calculated. Sex is a biological factor that can influence neurotoxicity. Thus, percentage of cytotoxicity of total 11 to 14 DRG replicates per group by sex from n = 3 male and n = 3 female rats were tested.
# (§3) Cytotoxicity(%)=(PosttreatLDHactivity)−(PretreatLDHactivity)/(MaximumLDHactivityfromlysedDRGs)−(PretreatLDHactivity)×100% (2)
# [2] = test system: dissociated neonatal DRG neurons; parameters: method as in PMID 7617165; details: 30 μM, within 24 hours; cited from earlier work
# [3] = DRG cytotoxicity assessment using LDH assay; assay type: cell-based, rat; details: female, rat, rat dorsal root ganglion (DRG) explants, female rat DRG explant, single well
# Method: as §1, §2, §3
# sciatic nerves = test system: sciatic nerves; parameters: method as in PMID 3126271; details: applied onto sciatic nerves; cited from earlier work
# Human NP cells [4] = assay: Quantification of viable NP cells (LIVE/DEAD staining); assay type: cell-based
# Method: (§4) Nucleus pulposus (NP) cells are native matrix-producing cells at the core of intervertebral discs. To repurpose axonal dieback compounds to denervate aberrant nerve fibers in discs related to chronic LBP, the cytocompatibility of these compounds with NP cells must be evaluated. Human NP cells (Sciencell, 4800) from donor 1 (Lot #5954) and donor 2 (Lot# 21579) were cultured according to previously established protocol in our lab adapted from manufacturer’s instructions. Briefly, passage three cells from both donors were expanded in Poly-L-lysine (PLL) (Sciencell, 413) coated T75 flasks. Cells were then lifted and reseeded at 5,000 cells/cm^2 onto two PLL-coated 48-well plates (Greiner Bio-One, 677180) and allowed to attach overnight before treating with Pyr or Vcr. One plate was used for LIVE/DEAD staining and the other plate was used for AlamarBlue assay as described below. Complete NP cell media (Sciencell, 4801) containing basal media supplemented with 1% penicillin-streptomycin, 1% growth supplement and 2% FBS were used for maintaining cells in culture. To mimic the hypoxic disc environment, NP cells were cultured in a hypoxia chamber (Stem Cell Technologies, 27310) with 5% CO2, 3.5% O2, 91.5% N2 (Airgas) during the entire culture and treatment incubation period.
# (§5) Pyr stock solution was diluted in complete NP media to achieve final concentrations of 500 μM, 1 mM and 2 mM Pyr. 16.9 μg/mL and 169 μg/mL Vcr stock solutions were prepared in 1X PBS then diluted in complete NP media to achieve final concentrations of 10, 25, 50, 100 nM and 200, 500 nM, respectively. Cells were incubated with 250 μL of final treatment solutions in duplicate wells per donor for three days. Cells in negative control group were incubated with 250 μL of complete NP media with 0.55% v/v 1X PBS as solvent control. On day 3 post-treatment, brightfield images at 4X magnification were taken using a BioTek Cytation1 Plate Imager (Agilent) to verify cell proliferation and observe cell morphology. Three experimental replicates were performed for each cell donor.
# (§6) On day 3 of incubation with drug, media treatment solutions were removed from each well and cells were carefully rinsed with 200 μL of sterile 1X PBS to remove excess media. NP cells were stained with 150 μL of 2 μM Calcein AM and 6 μM EtHD-1 solution from LIVE/DEAD Viability/Cytotoxicity Kit (Thermo Fisher Scientific, L3224) for 30 minutes at room temperature protected from light. After staining, cells were gently rinsed with 200 μL sterile 1X PBS to remove excess staining solution. Excitation and emission wavelengths for live cell fluorescence is 495 and 515 nm and dead cell fluorescence is 495 and 635 nm. Using a BioTek Cytation1 Plate Imager (Agilent), GFP filter cube (Agilent, 1225101, ex: 451.5–486.5 nm, em: 505.5–544.5 nm) and RFP filter cubes (Agilent, 1225103, ex: 511-551nm, em: 573–613 nm), fluorescent images at 4X magnification of four regions per well were taken. Gen5 v3.11 software (Agilent) was used to count green (live) and orange (dead) cells in fluorescent images. Dead NP cell staining was verified and evident by positive EtHD-1 orange staining in kill control wells where cells were treated with 70% EtOH for 10 minutes (S4 Fig). Percentage of live cells were calculated by calculating the percentage of live cells over total cell counts as shown in Eq 3.
# (§7) Cellviability(%)=Livecellcounts/Livecellcounts+Deadcellcounts×100% (3)
# [5] = as above; assay type: cell-based, human; details: both sexes, human; 500 μM, 1 mM and 2 mM, day 3 post-treatment, either donor; read-out: Percentage of viable cells
# Method: as §4, §5, §6, §7
# Human NP cells [6] = assay: NP cell metabolic activity (AlamarBlue reduction); assay type: cell-based;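 as to AB reduction per cell (%): percent AlamarBlue reduction per manufacturer divided by estimated total cells per well from LIVE/DEAD counts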
# Method: as §4, §5
# On day 3 of incubation with drugs, 25 μL (10% v/v of media volume) of AlamarBlue HS cell viability reagent (Thermo Fisher Scientific, A50100) were added into each well. Cells were incubated with the AlamarBlue reagent for 2 hours at 37°C under hypoxia then 60 μL aliquots of cell media were removed in duplicates into a 96-well plate. The absorbance at 570 and 600 nm were read using a microplate reader (Agilent) and calculations for AlamarBlue reduction were calculated according to the manufacturer’s protocol. To account for different cell confluency between donors and groups, AlamarBlue reduction was normalized to estimated total number of cells per well obtained from LIVE/DEAD staining. Cellular metabolic activity in treated groups was reported as a ratio of normalized AlamarBlue reduction to PBS control group.
# [7] = 500 µM, donor 1, day 3, single wells (Exp, Rep)
# [8] = 500 µM, donor 2, day 3, single wells (Exp, Rep)
# [9] = 1 mM, donor 1, day 3, single wells (Exp, Rep)
# [10] = 1 mM, donor 2, day 3, single wells (Exp, Rep)
# [11] = 2 mM, donor 1, day 3, single wells (Exp, Rep)
compound,measurement,setting,value
"COc1cc(CNC(=O)CCCC/C=C/C(C)C)ccc1O [Caps, capsaicin]",Median axon length ratio (interquartile range),adult rat DRG explants,0.657 (0.359–0.750) and 0.453 (0.270–0.624)
same,Duration of alleviation of knee pain,[1],about 18 weeks
same,Percentage of cytotoxicity lower than in lysed DRGs,"rat DRG explants; 3.79 mM, 3-day incubation",90.2%
same,Cytotoxicity (%),"rat DRG explants; 3.79 mM, male rat DRG explant",16.4427%
same,Overall cytotoxicity lower compared to lysed DRGs,rat DRG explants,at least 88%
same,Cell death,[2],induced significant cell death
"C[C@H](CCC(=O)O)C[C@H](C)C[C@H](C)C(=O)/C=C(\O)[C@H](C)C[C@H](C)C/C=C/[C@@H](C)[C@@H](O)[C@@H](C)[C@@H](O)C[C@@H]1CC[C@@](C)([C@H]2CC[C@@](C)([C@@H](C)O)O2)O1 [Imy, Ionomycin]",Change in axon length ratio between timepoints,adult rat DRG explants,no significant differences were observed between timepoints
same,Decrease in axon length,adult rat DRG explants,10%
same,Median axon length ratio (interquartile range),adult rat DRG explants,0.977 (0.852–1.004) and 0.9 (0.75–0.985) and 0.982 (0.854–1.121)
same,Cytotoxicity (%),"rat DRG explants; 0.77 µM, female rat DRG explant",6.379% and 11.5202%
same,Overall cytotoxicity lower compared to lysed DRGs,rat DRG explants,at least 88%
same,"cytotoxicity at 3 days, 0.77 µM",[3]; 0.77 µM,8.76%
same,Fibers exhibiting large nerve lesions,sciatic nerves,up to 95%
"Cc1ncc(CO)c(CO)c1O [Pyr, Pyridoxine hydrochloride]",Axonal dieback over time and against solvent control,adult rat DRG explants,did not induce significant axonal dieback
same,Day on which Caps axon length ratio threshold (0.45) was met,adult rat DRG explants,≤ 2 days
same,Median axon length ratio (interquartile range),adult rat DRG explants,0.607 (0.418–0.875) and 0.539 (0.317–0.676) and 0.451 (0.347–0.587)
same,Percent live (%),Human NP cells [4]; [7],99.8382% and 99.8845% and 99.1403% and 98.8605% and 99.9471% and 98.2749%
same,Percent live (%),Human NP cells [4]; [8],97.5506% and 96.954% and 96.3405% and 99.1395% and 96.5794% and 98.8823%
same,Percent live (%),Human NP cells [4]; [9],99.8893% and 99.7678% and 99.8269% and 99.7809%
same,Percent live (%),Human NP cells [4]; [10],96.1436% and 95.9726% and 96.9575% and 96.5249%
same,Percent live (%),Human NP cells [4]; [11],98.6699% and 99.5161% and 83.5317% and 86.125% and 97.6421% and 98.8217%
same,viability at 3 days,[5],> 89%
same,AlamarBlue reduction normalized to cell counts compared to PBS control,"Human NP cells [6]; 500 μM, 1 mM and 2 mM, day 3",not significantly different between PBS control and all treated groups
same,AB reduction per cell (%),Human NP cells [6]; [7],0.001757% and 0.001402% and 0.001221% and 0.001189% and 0.001666% and 0.001549%
same,AB reduction per cell (%),Human NP cells [6]; [8],0.002098% and 0.001803% and 0.002358% and 0.001696% and 0.002473% and 0.003239%
same,AB reduction per cell (%),Human NP cells [6]; [9],0.001279% and 0.001156% and 0.001657% and 0.001546%
same,AB reduction per cell (%),Human NP cells [6]; [10],0.001937% and 0.002155% and 0.002387% and 0.003301%
same,AB reduction per cell (%),Human NP cells [6]; [11],0.002206% and 0.002078% and 0.002787% and 0.003671% and 0.002259% and 0.001426%
same,AB reduction per cell (%),"Human NP cells [6]; 2 mM, donor 2, day 3, single wells (Exp, Rep)",0.00138% and 0.001132% and 0.01401% and 0.003735% and 0.006792% and 0.003692%
same,Cytotoxicity (%),"rat DRG explants; 50 µM, female rat DRG explant",1.523% and -1.428% and 2.095%
same,Cytotoxicity (%),"rat DRG explants; 500 µM, female rat DRG explant",8.854% and 7.426%
same,Cytotoxicity (%),"rat DRG explants; 1 mM, female rat DRG explant",4.951% and 3.523%
same,"cytotoxicity at 3 days, 500 µM",[3]; 500 µM,5.33%
same,"cytotoxicity at 3 days, 1 mM",[3]; 1 mM,3.24%
